According to patent US20180311342A1, “IMMUNOSTIMULATING AGENT” (AJINOMOTO CO., INC., priority 2017, published 2018):

What was measured:
Assay type in all cases: in vivo, BALB/c mice
[1] = system: anti-OVA-specific IgG1 subclass antibody; assay: Adjuvant activity test: anti-OVA-specific IgG1 subclass antibody in serum of OVA-immunized mice (ELISA); conditions: after primary immunization, serum 2 weeks later; OVA 5 μg + compound 0.256 μmol in 5% αCD-added saline (Addavax mixed with saline at 1:1), dorsal-subcutaneous; compared to OVA single administration group
[2] = system: anti-OVA-specific IgG2a subclass antibody; assay: Adjuvant activity test: anti-OVA-specific IgG2a subclass antibody in serum of OVA-immunized mice (ELISA); conditions: after primary immunization, serum 2 weeks later; OVA 5 μg + compound 0.256 μmol in 5% αCD-added saline (Addavax mixed with saline at 1:1), dorsal-subcutaneous; compared to OVA single administration group
[3] = system: anti-OVA-specific IgG1 and IgG2a subclass antibody production; assay: Evaluation test of adjuvant activity (overall conclusion from anti-OVA IgG1 and IgG2a production); conditions: compound 0.256 μmol in 5% αCD-added saline with OVA 5 μg, dorsal-subcutaneous
Protocol: 8-Week-old female BALB/c mice were divided into groups (N=6), and each group was primarily immunized by dorsal-subcutaneous administration of (1) ovalbumin (OVA) (5 μg) dissolved in saline as an antigen (OVA single administration group), (2) OVA 5 μg and Addavax™ (mixed with saline at 1:1) dissolved in saline (Addavax™ administration group) as positive control adjuvant, (3) OVA 5 μg and SZ137 0.256 μmol dissolved or dispersed in 5% α-cyclodextrin (hereinafter to be simply referred to as αCD)-added saline (SZ137 administration group), (4) OVA (5 μg) and SZ138 (0.256 μmol) dissolved or dispersed in 5% αCD-added saline (SZ138 administration group), (5) OVA (5 μg) and SZ142 (0.256 μmol) dissolved or dispersed in 5% αCD-added saline (SZ142 administration group), (6) OVA (5 μg) and SZ144 (0.256 μmol) dissolved or dispersed in 5% αCD-added saline (SZ144 administration group), (7) OVA (5 μg) and SZ145 (0.256 μmol) dissolved or dispersed in 5% αCD-added saline (SZ145 administration group), (8) OVA (5 μg) and SZ146 (0.256 μmol) dissolved or dispersed in 5% αCD-added saline (SZ146 administration group), (9) OVA (5 μg) and SZ147 (0.256 μmol) dissolved or dispersed in 5% αCD-added saline (SZ147 administration group), (10) OVA (5 μg) and SZ148 (0.256 μmol) dissolved or dispersed in 5% αCD-added saline (SZ148 administration group), each per mouse. Two week later, the secondary immunization was carried out by dorsal-subcutaneous administration of solutions or dispersions similar to those of the above-mentioned (1)-(10) again. […]
To a 96 well plate was added 5 μg/ml OVA at 100 µl/well, and the mixture was incubated at 4° C. overnight. After incubation, the mixture was washed three times with 200 μl of PBS-T (PBS (phosphate buffered saline)+0.05% (v/v) Tween 20) per well, and blocked with 100 μl of 5% FCS (fetal calf serum)/PBS solution per well at room temperature for 1-2 hr. Thereafter, the mixture was washed three times with PBS-T (200 μl/well), a diluted serum sample (100 l/well) or the same amount of 5% FCS/PBS solution as a control was added, and the mixture was incubated at 37° C. for 1 hr. To calculate concentration of the antibody, the standard of an anti-OVA-specific IgG1 subclass antibody diluted with 2% FCS/PBS solution was added at 100 ng/ml, 50 ng/ml, 25 ng/ml, 12.5 ng/ml, 6.25 ng/ml, 3.125 ng/ml, 1.56 ng/ml, 0.781 ng/ml, 0.391 ng/ml, 0.195 ng/ml, 0.098 ng/ml, 0 ng/ml, per 1 well. When an anti-OVA-specific IgG2a subclass antibody was measured, the standard of an anti-OVA-specific IgG2a subclass antibody was added at 50 ng/ml, 25 ng/ml, 12.5 ng/ml, 6.25 ng/ml, 3.125 ng/ml, 1.56 ng/ml, 0.781 ng/ml, 0.391 ng/ml, 0.195 ng/ml, 0.098 ng/ml, 0.049 ng/ml, 0 ng/ml, per 1 well. Thereafter, similar to the samples, the mixture was washed five times with PBS-T (200 μl/well), a diluted biotinylated anti-mouse IgG1 antibody and IgG2a antibody were added (100 μl/well), and the mixture was incubated at 37° C. for 45 min. Thereafter, the mixture was washed five times with PBS-T (200 μl/well), a diluted anti-biotin-HRP antibody was added (100 μl/well), and the mixture was incubated at 37° C. for another 30 min. Thereafter, the mixture was washed five times with PBS-T (200 μl/well), TMB substrate solution was added (100 μl/well), and the mixture was incubated at room temperature for 10-15 min. Thereafter, a reaction quenching liquid (2N sulfuric acid solution) was added (50 l/well) to discontinue a color developing reaction, and the absorbance (OD Value=450 nm) was measured by a microplate reader. A standard curve was drawn from the measured OD values, and the concentration was calculated. […]

[4] = conclusion from IgG1/IgG2a after primary immunization

Row | SMILES | anti-OVA-specific IgG1 subclass antibody production [1] | anti-OVA-specific IgG2a subclass antibody production [2] | adjuvant activity [3, 4] | adjuvant activity ([3]; conclusion from IgG1/IgG2a after secondary immunization)
1 | CCCCCCCCCCCCCCCCCCCCCC(=O)N[C@@H](CSSC[C@H](NC(=O)CCCCCCCCCCCCCCCCCCCCC)C(=O)NCCCCCCCCCCCC)C(=O)NCCCCCCCCCCCC [SZ173, N-[(1R)-1-[[[(2R)-2-(docosanoylamino)-3-(dodecylamino)-3-oxo-propyl]disulfanyl]methyl]-2-(dodecylamino)-2-oxo-ethyl]docosanamide] | showed a tendency to increase | significantly increased | has an adjuvant activity | –
2 | CCCCCCCCCCCCNC(=O)[C@H](CCCNC(=N)N)N(Cc1ccccc1)Cc1ccccc1 [SZ174, (2S)-2-(Dibenzylamino)-N-dodecyl-5-guanidino-pentanamide] | tended to increase | significantly increased | have an adjuvant activity | –
3 | CCCCCCCCCCCCCCCC(=O)NCCCCCNC(=N)N [SZ175, N-(5-guanidinopentyl)hexadecanamide] | tended to increase | significantly increased | have an adjuvant activity | –
4 | CCCCCCCCCCCCCCCCCCCCCC(=O)NCCCCCNC(=N)N.Cl [SZ176, N-(5-guanidinopentyl)docosanamide] | tended to increase | significantly increased | have an adjuvant activity | –
5 | CCCCCCCCCCCCNC(=O)[C@H](CCCNC(=N)N)NC(=O)C(=O)CCCCCC.Cl [SZ177, N-[(1S)-1-(dodecylcarbamoyl)-4-guanidino-butyl]-2-oxo-octanamide] | tended to increase | significantly increased | have an adjuvant activity | –
6 | CCCCCCCCCCCCCCCCCCOC(=O)N[C@@H](CCCNC(=N)N)C(=O)NCCCCCCCCCCCC.Cl [SZ186, octadecyl N-[(1S)-1-(dodecylcarbamoyl)-4-guanidino-butyl]carbamate hydrochloride] | significant enhancement | significant enhancement | have an adjuvant activity | have an adjuvant activity
